Read-outs that look alike come from different tables or passages of the source.
Molecular target: T1, S. aureus topoisomerase IV (ATPase kit; ParE subunit) (Staphylococcus aureus, UniProt Q5HG65)
T1 construct: purified topoisomerase IV from commercial kit (Inspiralis), C2E2 heterotetramer; with DNA topoisomerase 4 subunit A
Test: PK/LDH-coupled ATPase assay, A340
Assay type: biochemical
Source text: PK/LDH-coupled ATPase assay, A340 on S. aureus topoisomerase IV (ATPase kit; ParE subunit)

T1 sequence (Q2FYS4 whole entry): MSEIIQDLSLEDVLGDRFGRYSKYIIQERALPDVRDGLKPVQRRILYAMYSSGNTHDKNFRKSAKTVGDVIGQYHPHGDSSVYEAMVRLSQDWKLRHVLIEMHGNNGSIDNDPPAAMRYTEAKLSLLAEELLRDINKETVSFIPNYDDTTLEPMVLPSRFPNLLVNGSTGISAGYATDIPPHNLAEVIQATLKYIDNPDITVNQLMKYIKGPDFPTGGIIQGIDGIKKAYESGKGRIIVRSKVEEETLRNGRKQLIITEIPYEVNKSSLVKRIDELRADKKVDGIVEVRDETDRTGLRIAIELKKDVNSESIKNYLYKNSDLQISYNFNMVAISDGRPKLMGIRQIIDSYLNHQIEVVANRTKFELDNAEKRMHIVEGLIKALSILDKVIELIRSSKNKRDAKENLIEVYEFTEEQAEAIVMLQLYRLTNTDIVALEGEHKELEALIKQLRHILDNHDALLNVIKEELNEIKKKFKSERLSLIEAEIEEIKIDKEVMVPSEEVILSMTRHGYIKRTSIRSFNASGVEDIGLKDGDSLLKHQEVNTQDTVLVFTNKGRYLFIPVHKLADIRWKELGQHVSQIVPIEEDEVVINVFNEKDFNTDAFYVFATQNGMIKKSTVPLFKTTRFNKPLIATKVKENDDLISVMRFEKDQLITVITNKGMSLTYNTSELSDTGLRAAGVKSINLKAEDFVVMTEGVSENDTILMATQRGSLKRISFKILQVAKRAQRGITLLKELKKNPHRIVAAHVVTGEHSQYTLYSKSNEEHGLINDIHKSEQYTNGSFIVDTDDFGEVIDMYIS
T1 sequence (Q5HG65 whole entry): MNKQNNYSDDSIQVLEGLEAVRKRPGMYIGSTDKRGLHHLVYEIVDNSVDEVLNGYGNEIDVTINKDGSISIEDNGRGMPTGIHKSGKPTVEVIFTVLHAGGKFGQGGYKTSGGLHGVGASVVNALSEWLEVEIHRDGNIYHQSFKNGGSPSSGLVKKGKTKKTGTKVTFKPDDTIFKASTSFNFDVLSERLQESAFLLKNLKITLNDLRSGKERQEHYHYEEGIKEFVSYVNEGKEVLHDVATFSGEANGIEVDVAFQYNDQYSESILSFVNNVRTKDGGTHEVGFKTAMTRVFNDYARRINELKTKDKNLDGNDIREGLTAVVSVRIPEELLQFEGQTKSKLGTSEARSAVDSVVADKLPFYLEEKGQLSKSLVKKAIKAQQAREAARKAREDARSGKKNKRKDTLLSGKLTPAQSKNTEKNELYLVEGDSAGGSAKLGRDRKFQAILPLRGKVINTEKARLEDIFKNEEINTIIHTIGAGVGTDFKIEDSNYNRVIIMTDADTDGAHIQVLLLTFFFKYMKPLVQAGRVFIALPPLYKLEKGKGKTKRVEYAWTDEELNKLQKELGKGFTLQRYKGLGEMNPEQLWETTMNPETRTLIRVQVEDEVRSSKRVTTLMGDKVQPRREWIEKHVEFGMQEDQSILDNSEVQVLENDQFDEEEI

| Compound | inhibition at 20 µM (read-out: 4) [%] | inhibition at 20 µM (read-out: 7) [%] |
| --- | --- | --- |
| O=C(NNC(=S)Nc1ccc([N+](=O)[O-])cc1)c1cc2ccccc2[nH]1 [compound 4, 1-(indol-2-oyl)-4-(4-nitrophenyl) thiosemicarbazide] | 55.8 ± 1.59 | – |
| O=C(NC(=S)NNC(=O)c1cc2ccccc2[nH]1)c1ccccc1 [compound 7, 4-benzoyl-1-(indol-2-oyl) thiosemicarbazide] | – | 49.4 ± 2.27 |
